One assay relates to L6. Briefly: Cytotoxicity against rat L6 cells. It is filed as functional, cell-based.
Assay [1] addresses T1, Deoxyuridine triphosphatase (Trypanosoma cruzi (strain CL Brener), UniProt Q4DI50).
T1 sequence (Q4DI50 whole entry): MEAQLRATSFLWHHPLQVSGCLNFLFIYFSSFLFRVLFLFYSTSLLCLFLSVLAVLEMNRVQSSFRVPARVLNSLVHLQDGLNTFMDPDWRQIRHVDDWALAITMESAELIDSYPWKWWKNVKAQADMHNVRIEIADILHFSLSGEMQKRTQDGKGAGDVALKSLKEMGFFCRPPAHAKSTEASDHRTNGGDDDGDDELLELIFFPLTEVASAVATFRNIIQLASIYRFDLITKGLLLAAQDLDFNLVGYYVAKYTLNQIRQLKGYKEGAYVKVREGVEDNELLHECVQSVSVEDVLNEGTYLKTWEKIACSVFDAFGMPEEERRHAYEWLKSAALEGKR
Briefly: Inhibition of Trypanosoma cruzi dUTPase at 1 mM.

For a further assay, the system named is Trypanosoma cruzi. Put plainly: Antitrypanosomal activity against Trypanosoma cruzi. Format: functional, organism-based.

On to `NCCCC[C@H](NC(=O)CNC(=O)Cn1ccc(=O)[nH]c1=O)C(=O)O`, for which the IC50 (as a rule, the concentration that inhibits the measured activity by half) was > 253 µM in the assay with L6 and > 84 µM in the assay with Trypanosoma cruzi. Besides, the Ki (commonly the equilibrium dissociation constant of an inhibitor or competing ligand from its target) in assay [1] was > 1000 µM.

As to `C[C@H](NC(=O)Cn1ccc(=O)[nH]c1=O)C(=O)N[C@H](C(=O)O)[C@@H](C)O`, the IC50 was > 262 µM in the assay with L6 and > 87 µM in the assay on Trypanosoma cruzi. For the same molecule, in assay [1], the inhibitory constant (Ki) is > 1000 µM.

Regarding `C[C@H](NC(=O)Cn1ccc(=O)[nH]c1=O)C(=O)N[C@@H](CC(=O)O)C(=O)O`, the IC50 with L6 was > 252 µM; in the assay with Trypanosoma cruzi, > 84 µM. The inhibition constant (Ki) in assay [1] is > 1000 µM.

Take `COc1cc([C@@H]2c3cc4c(cc3[C@H](O)[C@H]3COC(=O)[C@H]23)OCO4)cc(OC)c1OC` [PODOFILOX]: the IC50 in the assay on L6 was 0.15 µM.

Take `O=C(Cn1ccc(=O)[nH]c1=O)NCC(=O)N[C@@H](Cc1ccc(O)cc1)C(=O)O`: the IC50 in the assay on L6 is > 230 µM; in the assay with Trypanosoma cruzi it was > 76 µM. For the same molecule, the inhibition constant (Ki) in assay [1] is > 1000 µM.

In the assay on Trypanosoma cruzi, `O=C(Cn1ccnc1[N+](=O)[O-])NCc1ccccc1` [BENZNIDAZOLE] showed an IC50 of 1.04 µM.

The molecule `O=c1ccn([C@H]2C[C@H](O)[C@@H](COP(=O)(O)O)O2)c(=O)[nH]1` [DEOXYURIDINE MONOPHOSPHATE] gave a Ki in assay [1] of 18.4 µM.

Regarding `C[C@H](NC(=O)Cn1ccc(=O)[nH]c1=O)C(=O)N[C@@H](CCC(=O)O)C(=O)O`, the IC50 in the assay with L6 is 210 µM; in the assay with Trypanosoma cruzi it was > 81 µM. Further, in assay [1], the inhibitory constant (Ki) is > 1000 µM.

Turning to `C[C@H](NC(=O)Cn1ccc(=O)[nH]c1=O)C(=O)N[C@@H](CCC(N)=O)C(=O)O`, the IC50 is > 243 µM in the assay on L6 and > 81 µM in the assay with Trypanosoma cruzi. Further, the inhibition constant Ki in assay [1] was > 1000 µM.

In the case of `C[C@H](NC(=O)Cn1ccc(=O)[nH]c1=O)C(=O)N[C@@H](CCCCN)C(=O)O`, the IC50 was > 243 µM with L6 and > 81 µM in the assay on Trypanosoma cruzi. In addition, in assay [1], the Ki is > 1000 µM.

As for `C[C@H](NC(=O)Cn1ccc(=O)[nH]c1=O)C(=O)NCC(=O)O`, the half-maximal inhibitory concentration (IC50) in the assay with L6 was > 301 µM; with Trypanosoma cruzi it was > 100 µM. Further, in assay [1], the Ki is > 1000 µM.

As for `C[C@H](NC(=O)Cn1ccc(=O)[nH]c1=O)C(=O)N[C@@H](Cc1ccc(O)cc1)C(=O)O`, the half-inhibitory concentration (IC50) was 214 µM in the assay on L6 and > 74 µM with Trypanosoma cruzi. In addition, the Ki in assay [1] was > 1000 µM.

For `O=C(O)CNC(=O)Cn1ccc(=O)[nH]c1=O`, the half-maximal inhibitory concentration (IC50) was > 396 µM with L6 and > 132 µM in the assay on Trypanosoma cruzi. For the same molecule, the Ki in assay [1] is > 1000 µM.

Turning to `C[C@@H](O)[C@H](NC(=O)CNC(=O)Cn1ccc(=O)[nH]c1=O)C(=O)O`, the concentration for half-maximal inhibition (IC50) with L6 was > 274 µM; in the assay on Trypanosoma cruzi it was > 91 µM. The Ki in assay [1] is > 1000 µM.

These data come from ChEMBL document CHEMBL1137425, “Design, synthesis and evaluation of novel uracil amino acid conjugates for the inhibition of Trypanosoma cruzi dUTPase” (Bioorg Med Chem Lett, 2006).
